Data on 23 compounds can be found in US11802111B2, “Cyclobutyl amide monoacylglycerol lipase modulators” (Janssen Pharmaceutica NV, priority 2020, dated 2023).

Structures are written as SMILES.

human MGL from HeLa cells, sequence (Q99685 whole entry): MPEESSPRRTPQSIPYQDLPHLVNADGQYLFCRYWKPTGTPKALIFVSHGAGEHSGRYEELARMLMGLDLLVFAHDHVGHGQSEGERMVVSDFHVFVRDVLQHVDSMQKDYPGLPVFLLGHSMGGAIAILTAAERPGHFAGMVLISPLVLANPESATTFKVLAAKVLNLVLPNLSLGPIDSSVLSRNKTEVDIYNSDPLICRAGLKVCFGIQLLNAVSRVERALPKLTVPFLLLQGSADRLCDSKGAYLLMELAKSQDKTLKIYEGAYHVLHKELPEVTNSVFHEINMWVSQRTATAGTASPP

The experiment deals with human MGL from HeLa cells (Homo sapiens (Human), UniProt Q99685). Briefly: MGL in vitro activity assay ([glycerol-1,3-3H]-oleoyl glycerol hydrolysis, activated carbon filtration). It counts as biochemical. Conditions: 300 nM [Glycerol-1,3-3H]-oleoyl glycerol, one hour. On the procedure:
The assay used to measure the in vitro activity of MGL is adapted from the assay used for another serine hydrolase (FAAH) described in Wilson et al., 2003 (A high-throughput-compatible assay for determining the activity of fatty acid amide hydrolase. Wilson S J, Lovenberg T W, Barbier A J. Anal Biochem. 2003 Jul. 15; 318(2):270-5). The assay consists of combining endogenously expressed MGL from HeLa cells with test compounds, adding [glycerol-1,3-^3H]-oleyl glycerol, incubating for one hour, and then measuring the amount of cleaved [1,3-^3H]-glycerol that passes through an activated carbon filter. The amount of cleaved, tritiated glycerol passing through the carbon filter is proportional to the activity of the MGL enzyme in a particular well/test condition.
Standard conditions for this assay combine 300 nM [Glycerol-1,3-^3H]-oleoyl glycerol with human MGL from HeLa cells and test compounds for one hour, after which the reaction is filtered through activated carbon and tritium is measured in the flow through. The test compound concentration in screening mode is 10 μM, while the highest compound concentration in IC50 assays is determined empirically. MGL is the predominant hydrolase in HeLa cells/cell homogenates.
On to `CC(C)(C)c1cccc(C2CCC3(CC2)CN(C(=O)[C@H]2C[C@@](C)(O)C2)C3)c1` [Example 135, (7-(3-(tert-Butyl)phenyl)-2-azaspiro[3.5]nonan-2-yl)((1s,3s)-3-hydroxy-3-methylcyclobutyl)methanone], for which the IC50 amounted to 2.1 nM.

`Cc1c(F)cccc1CC1CC2(C1)CN(C(=O)[C@H]1C[C@@](C)(O)C1)C2` [Example 227, (6-(3-Fluoro-2-methylbenzyl)-2-azaspiro[3.3]heptan-2-yl)((1s,3s)-3-hydroxy-3-methylcyclobutyl)methanone] had an IC50 of 20 nM. This IC50 is about 9.5-fold higher than that of the compound before.

In the case of `CCOc1cc(C2CCC3(CC2)CN(C(=O)[C@H]2C[C@@](C)(O)C2)C3)ccc1C` [Example 360, (7-(3-Ethoxy-4-methylphenyl)-2-azaspiro[3.5]nonan-2-yl)((1s,3s)-3-hydroxy-3-methylcyclobutyl)methanone], the midpoint of inhibition, the IC50, lay at 36 nM.

`C[C@]1(O)C[C@@H](C(=O)N2CC3(CCC(c4cccc(C5(C(F)(F)F)CC5)n4)CC3)C2)C1` [Example 371, ((1s,3s)-3-Hydroxy-3-methylcyclobutyl)(7-(6-(1-(trifluoromethyl)cyclopropyl)pyridin-2-yl)-2-azaspiro[3.5]nonan-2-yl)methanone] registered an IC50 of 6.4 nM. Compared with the last compound, the IC50 is about 5.6-fold lower.

On to `Cc1cc(OC2CCC3(C2)CN(C(=O)[C@H]2C[C@@](C)(O)C2)C3)ccc1C(F)(F)F` (mixture of isomers) [Example 254, (rac)-((1s,3s)-3-Hydroxy-3-methylcyclobutyl)(6-(3-methyl-4-(trifluoromethyl)phenoxy)-2-azaspiro[3.4]octan-2-yl)methanone], for which the IC50 amounted to 21 nM.

`COc1cc(F)cc(C2CCC3(CC2)CN(C(=O)[C@H]2C[C@@](C)(O)C2)C3)c1` [Example 104, (7-(3-Fluoro-5-methoxyphenyl)-2-azaspiro[3.5]nonan-2-yl)((1s,3s)-3-hydroxy-3-methylcyclobutyl)methanone] registered an IC50 of 26 nM.

With `COc1cccc(C2CCC3(CC2)CN(C(=O)[C@H]2C[C@@](C)(O)C2)C3)c1` [Example 131, ((1s,3s)-3-Hydroxy-3-methylcyclobutyl)(7-(3-methoxyphenyl)-2-azaspiro[3.5]nonan-2-yl)methanone], the IC50 worked out at 32 nM.

Compound `Cc1cc(C(F)(F)F)cnc1OC1CCC2(CC1)CN(C(=O)[C@H]1C[C@@](C)(O)C1)C2` [Example 446, ((1s,3s)-3-Hydroxy-3-methylcyclobutyl)(7-((3-methyl-5-(trifluoromethyl)pyridin-2-yl)oxy)-2-azaspiro[3.5]nonan-2-yl)methanone] had an IC50 of 0.76 nM.

With `Cc1cccc(C)c1C1CCC2(C1)CN(C(=O)[C@H]1C[C@@](C)(O)C1)C2` (mixture of isomers) [Example 98, (rac)-(6-(2,6-Dimethylphenyl)-2-azaspiro[3.4]octan-2-yl)((1s,3s)-3-hydroxy-3-methylcyclobutyl)methanone], half-maximal inhibition (IC50) required 292 nM.

The compound `Cc1ccccc1CC1CCC2(C1)CN(C(=O)[C@H]1C[C@@](C)(O)C1)C2` (mixture of isomers) [Example 175, (rac)-((1s,3s)-3-Hydroxy-3-methylcyclobutyl)(6-(2-methylbenzyl)-2-azaspiro[3.4]octan-2-yl)methanone] returned an IC50 of 43 nM.

In the case of `Cc1c(C2CCC3(C2)CN(C(=O)[C@H]2C[C@@](C)(O)C2)C3)cccc1C(F)(F)F` (mixture of isomers) [Example 7, (rac)-((1s,3s)-3-Hydroxy-3-methylcyclobutyl)(6-(2-methyl-3-(trifluoromethyl)phenyl)-2-azaspiro[3.4]octan-2-yl)methanone], half-maximal inhibition (IC50) required 10 nM.

`CCc1ccc(OC2CCC3(CC2)CN(C(=O)[C@H]2C[C@@](C)(O)C2)C3)nc1C(F)F` [Example 439, (7-((6-(Difluoromethyl)-5-ethylpyridin-2-yl)oxy)-2-azaspiro[3.5]nonan-2-yl)((1s,3s)-3-hydroxy-3-methylcyclobutyl)methanone] showed an IC50 of 1.8 nM.

`Cn1c(C2CCC3(C2)CN(C(=O)[C@H]2C[C@@](C)(O)C2)C3)nc2ccccc21` (mixture of isomers) [Example 112, (rac)-((1s,3s)-3-Hydroxy-3-methylcyclobutyl)(6-(1-methyl-1H-benzo[d]imidazol-2-yl)-2-azaspiro[3.4]octan-2-yl)methanone] yielded an IC50 of 5530 nM.

For `C[C@]1(O)C[C@@H](C(=O)N2CC3(CC(Cc4cccc(OC(F)F)c4)C3)C2)C1` [Example 157, (6-(3-(Difluoromethoxy)benzyl)-2-azaspiro[3.3]heptan-2-yl)((1s,3s)-3-hydroxy-3-methylcyclobutyl)methanone], half-maximal inhibition (IC50) was put at 29 nM.

`COc1ccnc(OC2CCC3(CC2)CN(C(=O)[C@H]2C[C@@](C)(O)C2)C3)c1Cl` [Example 464, (7-((3-Chloro-4-methoxypyridin-2-yl)oxy)-2-azaspiro[3.5]nonan-2-yl)((1s,3s)-3-hydroxy-3-methylcyclobutyl)methanone] yielded an IC50 of 81 nM.

`Cn1cc(C(F)(F)F)c2ccc(C3CCC4(CC3)CN(C(=O)[C@H]3C[C@@](C)(O)C3)C4)nc21` [Example 386, ((1s,3s)-3-Hydroxy-3-methylcyclobutyl)(7-(1-methyl-3-(trifluoromethyl)-1H-pyrrolo[2,3-b]pyridin-6-yl)-2-azaspiro[3.5]nonan-2-yl)methanone] returned an IC50 of 19 nM.

`C[C@]1(O)C[C@@H](C(=O)N2CC3(CC(Cc4ccccn4)C3)C2)C1` [Example 167, ((1s,3s)-3-Hydroxy-3-methylcyclobutyl)(6-(pyridin-2-ylmethyl)-2-azaspiro[3.3]heptan-2-yl)methanone] gave an IC50 of 1390 nM. Against the preceding compound, the IC50 is about 73-fold higher.

Turning to `Cc1ccc(C2CCC3(CC2)CN(C(=O)[C@H]2C[C@@](C)(O)C2)C3)cc1` [Example 136, ((1s,3s)-3-Hydroxy-3-methylcyclobutyl)(7-(p-tolyl)-2-azaspiro[3.5]nonan-2-yl)methanone], the IC50 worked out at 35 nM.

The compound `Cn1ncc2ccc(CC3CC4(C3)CN(C(=O)[C@H]3C[C@@](C)(O)C3)C4)cc21` [Example 215, ((1s,3s)-3-Hydroxy-3-methylcyclobutyl)(6-((1-methyl-1H-indazol-6-yl)methyl)-2-azaspiro[3.3]heptan-2-yl)methanone] gave an IC50 of 43 nM.

Regarding `Cc1ccc(C2CCC3(C2)CN(C(=O)[C@H]2C[C@@](C)(O)C2)C3)cc1C(F)F` (mixture of isomers) [Example 92, (rac)-(6-(3-(Difluoromethyl)-4-methylphenyl)-2-azaspiro[3.4]octan-2-yl)((1s,3s)-3-hydroxy-3-methylcyclobutyl)methanone], the IC50 turned out to be 27 nM.

In the case of `CCOc1cc(F)cc(C2CCC3(CC2)CN(C(=O)[C@H]2C[C@@](C)(O)C2)C3)c1` [Example 365, (7-(3-Ethoxy-5-fluorophenyl)-2-azaspiro[3.5]nonan-2-yl)((1s,3s)-3-hydroxy-3-methylcyclobutyl)methanone], the IC50 is 22 nM.

Compound `CC(C)n1ccc2ccc(CC3CC4(C3)CN(C(=O)C3CC(C)(O)C3)C4)nc21` (centres unmarked) [Example 289, ((1s,3s)-3-Hydroxy-3-methylcyclobutyl)(6-((1-isopropyl-1H-pyrrolo[2,3-b]pyridin-6-yl)methyl)-2-azaspiro[3.3]heptan-2-yl)methanone] showed an IC50 of 8.2 nM.

In turn, `C[C@]1(O)C[C@@H](C(=O)N2CC3(CCC(Oc4cccc(C5CC5)c4F)C3)C2)C1` (mixture of isomers) [Example 334, (rac)-(6-(3-Cyclopropyl-2-fluorophenoxy)-2-azaspiro[3.4]octan-2-yl)((1s,3s)-3-hydroxy-3-methylcyclobutyl)methanone] returned an IC50 of 125 nM.

As usually defined, the IC50 is the midpoint of a concentration-inhibition curve.
